Test [1] has as its system Bax/Bak doubly deficient cells. In words: Death rate of Bax/Bak doubly deficient immortalized cells after death stimuli (DAPI staining, FACS). The following applies: Bax/Bak doubly deficient immortal cells, 24 hours, DAPI 1 μg/ml, FIG. 3A. The format is cell-based, mouse. On the procedure:
(§1) This example relates to determining that immortalized Bax/Bak doubly deficient cells are resistant to wide variety of death stimuli, including BH-3 only proapoptotic proteins. To test whether immortal Bax/Bak double deficient cells behave like primary Bax/Bak double deficient cells in resisting intrinsic cell death stimuli, wild type and Bax/Bak doubly deficient cells were treated with serum deprivation, etoposide (100 μM), staurosporin (4 μM), or brefeldin A (10 μg/ml). 24 hours later, cells were stained with DAPI (1 μg/ml), and death rate determined by FACS. Wild type immortal cells were killed by each of these death stimuli. This is consistent with the findings in the primary MEF cells.

Test [2] relates to primary fibroblasts isolated from Bax/Bak double deficient mice. The format is cell-based, mouse. An excerpt:
(§2) To study how the apoptotic machinery is regulated, mice deficient in both Bax and Bak have been produced. […] The characteristics of Bax/Bak double deficient mice are described in greater detail in our publications: Lindsten, T., Ross, A. J., King, A., Zong, W. X., Rathmell, J. C., Shiels, H. A., Ulrich, E., Waymire, K. G., Mahar, P., Frauwirth, K., Chen, Y., Wei, M., Eng, V. M., Adelman, D. M., Simon, M. C., Ma, A., Golden, J. A., Evan, G., Korsmeyer, S. J., MacGregor, G. R., and Thompson, C.

Another test has as its system wild type immortal cells. The test can be described thus: Death rate of wild type immortalized cells after death stimuli (DAPI staining, FACS). The following applies: 24 hours, DAPI 1 μg/ml, FIG. 3A. Format: cell-based, mouse. On the procedure:
as §1

The subject of test [3] is thymocytes isolated from the Bax/Bak double deficient mice.
Source text: as §2

Setting [4] is: primary fibroblasts from Bax/Bak double deficient mice.

Where two headings read alike, the source gives them in different places.

Take `C[C@H]1CCC/C=C/[C@@H]2C[C@H](O)C[C@H]2[C@H](O)/C=C/C(=O)O1` [brefeldin A]: the “cell death (death rate by FACS)” value in test [1] (brefeldin A 10 μg/ml) is listed as “survived”; with wild type immortal cells (brefeldin A 10 μg/ml), “killed”. For the same compound, in test [2] (setting [4]), the “resistance to death stimulus” value was “resistant”.

With `COc1cc([C@@H]2c3cc4c(cc3[C@@H](O[C@@H]3O[C@@H]5CO[C@@H](C)O[C@H]5[C@H](O)[C@H]3O)[C@H]3COC(=O)[C@H]23)OCO4)cc(OC)c1O` [etoposide], the “cell death (death rate by FACS)” value in test [1] (etoposide 100 μM) is “survived”; with wild type immortal cells (etoposide 100 μM), “killed”. Moreover, the “resistance to death stimulus” value in test [2] (setting [4]) was “resistant”. Also, the “resistance to induced cell death” value in test [3] is “resistant”.

As for `CN[C@@H]1C[C@H]2O[C@@](C)([C@@H]1OC)n1c3ccccc3c3c4c(c5c6ccccc6n2c5c31)C(=O)NC4` [staurosporin], the figures for the “cell death (death rate by FACS)” value (in test [1] (staurosporin 4 μM); in the test with wild type immortal cells (staurosporin 4 μM)) were “survived” and “killed”, respectively. Besides, the “resistance to death stimulus” value in test [2] is listed as “resistant”.

Take tharpsigargin: the “resistance to death stimulus” value in test [2] (setting [4]) is recorded as “resistant”.

On to tunicamycin, for which, in test [2] (setting [4]), the “resistance to death stimulus” value is listed as “resistant”.

These data come from patent US8389276B2 (priority 2001, dated 2013).
